According to patent publication US11261189B2, “Substituted 2,4 diamino-quinoline as new medicament for fibrosis, autophagy and cathepsins B (CTSB), L (CTSL) and D (CTSD) related diseases” (Genoscience Pharma, priority 2018, dated 2022):
Structures can show the parent of a compound that is named as a salt.

Molecular target: T1, cathepsin D (CTSD) (Homo sapiens, UniProt P07339)
T1 construct: cell lysates (1 μg of total proteins) were pre-incubated with citrate buffer pH 4.0; endogenous in cells; host or cells: HepG2
T1 sequence (P07339 65-412): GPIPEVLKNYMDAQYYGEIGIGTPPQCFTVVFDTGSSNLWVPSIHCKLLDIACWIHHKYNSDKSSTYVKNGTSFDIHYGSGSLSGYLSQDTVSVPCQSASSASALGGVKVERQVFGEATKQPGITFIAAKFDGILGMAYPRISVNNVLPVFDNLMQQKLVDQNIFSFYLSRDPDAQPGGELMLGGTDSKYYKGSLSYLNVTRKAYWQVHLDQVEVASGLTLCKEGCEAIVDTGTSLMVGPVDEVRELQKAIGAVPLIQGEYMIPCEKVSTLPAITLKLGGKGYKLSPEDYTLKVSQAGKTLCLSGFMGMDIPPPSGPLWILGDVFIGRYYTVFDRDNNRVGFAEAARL
Assay: Cathepsin D (CTSD) peptidase activity in lysates of treated HepG2 cells (MOCAc quenched fluorogenic substrate)
Format: cell-based
Procedure: Lysosomal functions was investigated in a hepatocellular carcinoma (HCC) cell line HepG2 after 6 hours and 24 hours of treatment with compound 2-3 (the hydrochloride salt form of compound 2-2) using functional assays of some lysosomal enzymes activity: two cysteine proteinases: cathepsin B (CTSB) and cathepsin L (CTSL), and one aspartic proteinase: cathepsin D (CTSD). Two sets of three concentrations of compound 2-3 (1 μM, 2 μM, and 4 μM for 6 hours, and 0.5 μM, 1 μM and 2 μM for 24 hours) were tested at least in triplicate and four independent experiments were performed. Salinomycin (7.5 μM for 6 hours and 24 hours) was used as a positive control.
The HepG2 cell line was maintained in DMEM (Dulbecco's Modified Eagle Media) high glucose (Cat #L0103-500, Dutscher) containing 1% penicillin-streptomycin (Cat #P06-07100, Dutscher) and 10% FBS (Fetal Bovine Serum) (Cat #11543407, Life Technologies). Cells were cultured at 37° C. with 5% CO2.
The day before the experiment, 6-well plates (Cat #353046, Dutscher) with 250,000 cells in 2.7 mL of medium per well were prepared.
Compound 2-3 was dissolved with filtrated H2O mQ to make a 10 mM stock solution and serial working solutions (10× solutions) were prepared with the diluent (=culture medium with 0.4% H2O mQ) at 5 μM, 10 μM, 20 μM and 40 μM: the “dilution 1” is made from the 10 mM stock solution in the culture medium and the following serial dilutions were made in the diluent to maintain a constant percentage of H2O.
Salinomycin [CAS 53003-10-4] was used as positive control and was dissolved with methanol to make a 10 mM stock solution and a 10× solution at 75 μM was prepared with the culture medium. […]
After 6 hours or 24 hours of cells treatment, the medium was removed from each well. […] Total protein concentration was assessed using the Bradford reagent (Cat #B6916-500ML, Sigma-Aldrich) and cellular lysates were stored at −80° C. until catalytic activity measurement. […]

CTSD activity versus NT (HepG2, 4 μM, 6 hours of treatment): 60.6% | inhibition of cathepsin D (CTSD) compare to the control (HepG2, 4 μM for 6 hours and 2 μM for 24 hours, p<0.05): statistically significant
SMILES: CC(C)(C)NC1CCN(c2cc(NCc3ccc(Cl)cc3)nc3ccccc23)CC1 [2-3, 2-(4-chlorobenzylamino)-4-(4-tert-butylaminopiperidin-1-yl)-quinoline Hydrochloride Salt]
